Laboratory results reported in patent publication US9833423B2 (KOREA RESEARCH INSTITUTE OF CHEMICAL TECHNOLOGY, priority 2011, dated 2017).
Converted amounts (≈) assume the structure as drawn.

Tests used:
Polio 3 = assay: microbe, parasite or virus in culture; assay type: cell-based, poliovirus 3; conditions: Enterovirus C, BGM, read-out: Polio 3 EC50
Rhino 2 = assay: Multicycle CPE reduction assay; assay type: cell-based, rhinovirus 2; conditions: Enterovirus; 37° C. in HeLa cells
Description: (§1) The test compounds were evaluated for anti-picornavirus activity by a multicycle cytopathic effect (CPE) reduction assay. The antiviral activity was initially determined using an MTS [3-(4,5-dimethylthiazol-2-yl)-5-(3-carboxymethoxyphenyl)-2-(4-sulfophenyl)-2H-tetrazolium]-based CPE reduction assay.
(§2) In this regard, cells grown to confluence in 96-well plates were infected with 100 50% cell culture infective doses (CCID50) of virus. After an adsorption period of 2 hrs at 37° C., virus was removed and serial dilutions of the compounds were added. […] After removal of the medium, 90 μl of a culture medium and 10 μl of MTS-phenazine methosulfate (Promega, Leiden, The Netherlands) were added to each well. After an incubation period of 2 hrs at 37° C., the optical density (OD) of each well was read at 498 nm in a microplate reader.
(§3) CPE values for evaluating antiviral activity were calculated using the following Mathmatic Formula 3: […]
(§4) The 50% effective concentration (EC50) and the 50 cytotoxic concentration (CC50) were defined as the concentrations of compound that offered 50% protection against virus-induced CPE and that killed cells by 50%, respectively, and were calculated using logarithmic interpolation.

Rhino 63 = assay: Multicycle CPE reduction assay; assay type: cell-based, rhinovirus 63; conditions: Enterovirus; 37° C. in HeLa cells
Description: as §1, §2, §3, §4

Coxsackie A21 = assay: Multicycle CPE reduction assay; assay type: cell-based, Coxsackievirus A21; conditions: Enterovirus C, A21, MRC5, read-out: Coxsackie A21 EC50
Rhino 89 = assay: Multicycle CPE reduction assay; assay type: cell-based, rhinovirus 89; conditions: Enterovirus; 37° C. in HeLa cells
Description: as §1, §2, §3, §4

Rhino 15 = assay: Multicycle CPE reduction assay; assay type: cell-based, rhinovirus 15; conditions: Enterovirus; 37° C. in HeLa cells
Description: as §1, §2, §3, §4

Coxsackie-virus B1 = assay: Cytopathic effect (CPE) inhibition assay; assay type: cell-based, Coxsackievirus B1; conditions: Enterovirus B, HeLa37, 48 h; Table 3; HeLa, 37° C., 2 days; read-out: EC50 Coxsackie-virus B1
[1] = system: coxsackieviruses B3, A16, A9, and A21; assay: Multicycle CPE reduction assay, text summary; assay type: cell-based; conditions: Table 5; read-out: EC50 against coxsackieviruses B3, A16, A9, and A21
Description: as §1, §2, §3, §4

Rhino 41 = assay: Multicycle CPE reduction assay; assay type: cell-based, rhinovirus 41; conditions: Enterovirus; 37° C. in HeLa cells
Description: as §1, §2, §3, §4

Rhino 85 = assay: Multicycle CPE reduction assay; assay type: cell-based, rhinovirus 85; conditions: Enterovirus; 37° C. in HeLa cells
Description: as §1, §2, §3, §4

Entero-virus 70 = assay: Cytopathic effect (CPE) inhibition assay; assay type: cell-based, Enterovirus 70; conditions: Enterovirus D, MRC5, 48 h; Table 3; MRC-5, 37° C., 2 days
Rhino 14 = assay: Multicycle CPE reduction assay; assay type: cell-based, rhinovirus 14; conditions: Enterovirus; 37° C. in HeLa cells
Description: as §1, §2, §3, §4

Polio-virus 3 = assay: microbe, parasite or virus in culture; assay type: cell-based, Poliovirus 3; conditions: Enterovirus C, HeLa37, 48 h, read-out: EC50 Polio-virus 3
Rhino 45 = assay: Multicycle CPE reduction assay; assay type: cell-based, rhinovirus 45; conditions: Enterovirus, HeLa, 37° C. in HeLa cells
Description: as §1, §2, §3, §4

Polio 1 = assay: microbe, parasite or virus in culture; assay type: cell-based, poliovirus 1; conditions: Enterovirus C, BGM, read-out: Polio 1 EC50
Entero 71 = assay: Multicycle CPE reduction assay; assay type: cell-based, enterovirus 71; conditions: Enterovirus A; 37° C. in RD cells
Description: as §1, §2, §3, §4

Rhino 72 = assay: Multicycle CPE reduction assay; assay type: cell-based, rhinovirus 72; conditions: Enterovirus; 37° C. in HeLa cells
Description: as §1, §2, §3, §4

Coxsackie A16 = assay: Multicycle CPE reduction assay; assay type: cell-based, Coxsackievirus A16; conditions: Enterovirus A, A16, MRC5; 37° C. in MRC-5 cells
Description: as §1, §2, §3, §4

Rhino 86 = assay: Multicycle CPE reduction assay; assay type: cell-based, rhinovirus 86; conditions: Enterovirus; 37° C. in HeLa cells
Description: as §1, §2, §3, §4

Echo 11 = assay: Multicycle CPE reduction assay; assay type: cell-based, echovirus 11; conditions: Enterovirus B; 37° C. in BGM cells
Description: as §1, §2, §3, §4

Coxsackie-virus B3 = assay: Cytopathic effect (CPE) inhibition assay; assay type: cell-based, Coxsackievirus B3; conditions: Enterovirus B, HeLa37, 48 h; Table 3; HeLa, 37° C., 2 days; read-out: EC50 Coxsackie-virus B3
Echo 9 = assay: Multicycle CPE reduction assay; assay type: cell-based, echovirus 9; conditions: Enterovirus B, MRC5; 37° C. in MRC-5 cells
Description: as §1, §2, §3, §4

in vitro = conditions: human, CC50
Rhino 29 = assay: Multicycle CPE reduction assay; assay type: cell-based, rhinovirus 29; conditions: Enterovirus; 37° C. in HeLa cells
Description: as §1, §2, §3, §4

Rhino 9 = assay: Multicycle CPE reduction assay; assay type: cell-based, rhinovirus 9; conditions: Enterovirus; 37° C. in HeLa cells
Description: as §1, §2, §3, §4

Rhino 39 = assay: Multicycle CPE reduction assay; assay type: cell-based, rhinovirus 39; conditions: Enterovirus; 37° C. in HeLa cells
Description: as §1, §2, §3, §4

Coxsackie B3 = assay: Multicycle CPE reduction assay; assay type: cell-based, Coxsackievirus B3; conditions: Enterovirus B, 37° C. in Vero cells
Description: as §1, §2, §3, §4

[2] = Cytotoxicity (CC50), MTS-based multicycle CPE reduction assay, Experimental Example 2; assay type: cell-based; conditions: Table 5
Description: as §1, §2
(§5) CPE values for evaluating cytotoxicity were calculated using the following Mathmatic Formula 4: […]
as §4

uninfected cell cultures = assay: as above; assay type: cell-based
Description: as §1, §2, §5, §4

Coxsackie-virus A24 (HG) = assay: Cytopathic effect (CPE) inhibition assay; assay type: cell-based, Coxsackievirus A24; conditions: Enterovirus C, MRC5, 48 h; Table 3; MRC-5, 37° C., 2 days
Rhino 70 = assay: Multicycle CPE reduction assay; assay type: cell-based, rhinovirus 70; conditions: Enterovirus, HeLa, read-out: Rhino 70 EC50, 37° C. in HeLa cells
Description: as §1, §2, §3, §4

Rhino 42 = assay: Multicycle CPE reduction assay; assay type: cell-based, rhinovirus 42; conditions: Enterovirus; 37° C. in HeLa cells
Description: as §1, §2, §3, §4

Rhino 59 = assay: Multicycle CPE reduction assay; assay type: cell-based, rhinovirus 59; conditions: Enterovirus; 37° C. in HeLa cells

SMILES	EC50 (Rhino 2) [µM]	EC50 (Rhino 63) [µM]	EC50 (Coxsackie A21) [µM]	EC50 (Rhino 89) [µM]	EC50 (Rhino 15) [µM]	EC50 (Rhino 41) [µM]	EC50 (Rhino 85) [µM]	EC50 (Rhino 14) [µM]	EC50 (Rhino 45) [µM]	EC50 (Polio 1) [µM]	EC50 (Entero 71) [µM]	EC50 (Rhino 72) [µM]	EC50 (Coxsackie A16) [µM]	EC50 (Rhino 86) [µM]	EC50 (Echo 11) [µM]	EC50 (Echo 9) [µM]	melting point [°C]	EC50 (Rhino 29) [µM]	EC50 (Rhino 9) [µM]	EC50 (Rhino 39) [µM]	further results
CC(=O)Oc1cc(C(C)C)ccc1C1(OC(C)=O)C(=O)c2ccccc2C1=O [Example 19, Acetic acid 2-(2-acetoxy-4-isopropyl-phenyl)-1,3-dioxo-indan-2-yl ester]	> 50	> 50	0.67 ± 0.13	> 50	> 50	> 50	> 50	0.45 ± 0.41	4.6 ± 0.0083	0.79 ± 0.36	0.1 ± 0.0018	4.6 ± 0.092	0.064 ± 0.01	26 ± 18	0.017 ± 0.0078	0.017 ± 0.0067	136 to 137	> 50	> 50	> 50	EC50 (Polio 3): < 1 µM; EC50 (Coxsackie-virus B1): < 0.01 µg/mL; EC50 [1]: 0.01 µM; EC50 (Entero-virus 70): < 0.01 µg/mL; EC50 (Polio-virus 3): < 1 µg/mL; EC50 (Coxsackie-virus B3): < 0.01 µg/mL; CC50 (in vitro): 17.7 µg/mL (≈ 46.5 µM); EC50 (Coxsackie B3): < 0.01 µM; CC50 at 3 days [2]: ≥ 100 µM; CC50 (uninfected cell cultures; Table 5, listed as Ex. 19): > 100 µM; EC50 (Coxsackie-virus A24 (HG)): < 1 µg/mL; EC50 (Rhino 70): 2 ± 0.12 µM; EC50 (Rhino 42): > 50 µM
CC(=O)Oc1cc(C)ccc1C1(OC(C)=O)C(=O)c2ccccc2C1=O [Example 74, 2-2-Acetoxy-1,3-dioxo-2,3-dihydro-1H-inden-2-yl]	> 50	> 50	26 ± 0.34	> 50	> 50	> 50	> 50	> 50	> 50	20 ± 14	3.3 ± 1.6	> 50	13 ± 0.32	26 ± 18	0.7 ± 0.24	0.61 ± 0.038	145 to 147	> 50	> 50	> 50	EC50 (Rhino 59): > 50 µM; CC50 at 3 days [2]: ≥ 100 µM; CC50 (uninfected cell cultures; Table 5, listed as Ex. 74): > 100 µM; EC50 (Rhino 70): > 50 µM; EC50 (Rhino 42): > 50 µM
